In patent publication US12264145B2, “Crystal form F of trelagliptin and preparation method thereof” (GUANGDONG UNIVERSITY OF TECHNOLOGY, priority 2023, dated 2025):
Values after ≈ are worked out from the molar mass of the structure shown.

Experiments:
Assay type in all cases: physicochemical
[1] = Equilibrium solubility of trelagliptin crystal forms in different dissolution media (UV-vis at 279 nm); conditions: for Solubility / solubility at 24 h: 24 h; for solubility at 24 h: 37 °C, thermodynamic from solid
[2] = High-temperature stability test (XRPD); conditions: 60° C. for 10 d, XRPD on day 5 and day 10
Description: (§1) According to the Guidelines for Stability Tests of Active Pharmaceutical Ingredients (APIs) and Formulations, the stability of the novel crystal form F of trelagliptin was tested.
(§2) High-temperature test: The novel crystal form F of trelagliptin was spread in a petri dish and then placed in a drying oven at 60° C. for 10 d, where on day 5 and day 10, a sample was taken and subjected to XRPD analysis to determine whether the crystal form was stable.

[3] = High-humidity stability test (XRPD); conditions: relative humidities of 90% and 75% at 25° C. for 10 d, XRPD on day 5 and day 10
Description: as §1
High-humidity test: The novel crystal form F of trelagliptin was spread in petri dishes, and then the petri dishes were placed in constant-temperature and constant-humidity incubators respectively with relative humidities of 90% and 75% at 25° C. for 10 d, where on day 5 and day 10, a sample was taken and subjected to XRPD analysis to determine whether the crystal form was stable.

[4] = Strong light irradiation stability test (XRPD); conditions: illuminance 4500 lx±500 lx for 10 d, XRPD on day 5 and day 10
Description: as §1
as §2, with “Strong light irradiation” for “High-temperature”, “strong light irradiation test chamber with illuminance of 4500 lx±500 lx” for “drying oven at 60° C.”

Moisture absorption = conditions: 80% RH, 25° C., 24 h
Description: The dried novel crystal form F of trelagliptin prepared in this example was spread in a weighing bottle, then placed in a constant-temperature and constant-humidity incubator with a humidity of 80% RH and a temperature of 25° C. for 24 h, and then weighed.

Cn1c(=O)cc(N2CCC[C@@H](N)C2)n(Cc2cc(F)ccc2C#N)c1=O [Crystal form F, trelagliptin]
Solubility ([1]; buffer solution pH = 1.2, 37° C.): 73.61 mg/mL (≈ 206 mM) | Solubility ([1]; buffer solution pH = 7.4, 37° C.): 30.54 mg/mL (≈ 85.5 mM) | solubility at 24 h ([1]; deionized water, water): 8.51 mg/mL (≈ 23.8 mM) | Solubilities compared with the original crystal form I ([1]; deionized water, pH 6.8, pH 7.4 and pH 1.2 buffer solutions): significantly-higher solubilities | Solubility ([1]; sodium phosphate buffer solution pH = 6.8, 37° C.): 32.78 mg/mL (≈ 91.7 mM) | Stability of the crystal form [2]: no impact on the stability | Stability of the crystal form [3]: no impact on the stability | Stability of the crystal form [4]: no impact on the stability | Weight gain (moisture absorption) (Moisture absorption): less than 0.4%

Cn1c(=O)cc(N2CCC[C@@H](N)C2)n(Cc2cc(F)ccc2C#N)c1=O [Crystal form I, trelagliptin]
solubility at 24 h ([1]; buffer solution, pH 1.2, simulated gastric fluid, buffer solution pH = 1.2, 37° C.): 42.7 mg/mL (≈ 119 mM)
